Reference: US10653688B2, “6-(6-membered heteroaryl and aryl)isoquinolin-3-yl carboxamides and preparation and use thereof” (Samumed, LLC, priority 2017, dated 2020)
Like-named read-outs stand apart in the source and are kept apart here.

Legend:
[1] = tested on: Wnt activity (SW480 colon carcinoma cells stably expressing the Sp5-Luc reporter gene); experiment: Wnt activity screening assay (Sp5-Luc reporter gene assay); format: cell-based, human; conditions: for EC50: 36 to 48 hours; for inhibition at 10 µM: read-out: percent inhibition at 10 μM (given for EC50 >10 μM), 10 μM
From the text: The screening assay for Wnt activity is described as follows. Reporter cell lines can be generated by stably transducing cancer cell lines (e.g., colon cancer) or primary cells (e.g., IEC-6 intestinal cells) with a lentiviral construct that includes a Wnt-responsive promoter driving expression of the firefly luciferase gene.
SW480 colon carcinoma cells were transduced with a lentiviral vector expressing luciferase with a human Sp5 promoter consisting of a sequence of eight TCF/LEF binding sites. SW480 cells stably expressing the Sp5-Luc reporter gene and a hygromycin resistance gene were selected by treatment with 150 μg/mL of hygromycin for 7 days. These stably transduced SW480 cells were expanded in cell culture and used for all further screening activities. […] For Sp5-Luc reporter gene assays, the cells were plated at 4,000 cells/well in 384-well plates with a DMEM medium containing 1% fetal bovine serum, and 1% Penicillin-Streptomycin and incubated for 36 to 48 hours at 37° C. and 5% CO2. Following incubation, 15 μl of BriteLite Plus luminescence reagent (Perkin Elmer) was added to each well of the 384-well assay plates. The plates were placed on an orbital shaker for 2 min and then luminescence was quantified using the Envision (Perkin Elmer) plate reader. Readings were normalized to DMSO only treated cells, and normalized activities were utilized for EC50 calculations using the dose-response log (inhibitor) vs. response-variable slope (four parameters) nonlinear regression feature available in GraphPad Prism 5.0 (or Dotmatics).

recombinant GSK3β kinase = recombinant GSK3β kinase (Homo sapiens (Human), UniProt P49841); experiment: GSK3β kinase assay (Ser/Thr 09 peptide Z-lyte, FRET); format: biochemical;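 also: FRET read-out as coumarin over fluorescein emission ratio, compounds incubated one hour at room temperature, IC50 from dose-response curve fit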
[2] = tested on: SW480 colon carcinoma cells; experiment: Cell viability assay (CellTiter-Glo); format: cell-based, human; conditions: for EC50: four days, CellTiter-Glo
Experimental: SW480 colon carcinoma cells were transduced with a lentiviral vector expressing luciferase with a human Sp5 promoter consisting of a sequence of eight TCF/LEF binding sites. SW480 cells stably expressing the Sp5-Luc reporter gene and a hygromycin resistance gene were selected by treatment with 150 μg/mL of hygromycin for 7 days. These stably transduced SW480 cells were expanded in cell culture and used for all further screening activities.
For the Cell Viability Assays, the cells were plated at 2,000 cells/well in 384-well plates with a DMEM medium containing 1% fetal bovine serum, and 1% Penicillin-Streptomycin and incubated for […] at 37° C. and 5% CO2. Eight replicates of DMSO-treated cells served as controls and cells treated with compound were performed in duplicate.
After incubation, 10 μL of CellTiter-Glo (Promega) was added to each well allowed to incubate for approximately 12 minutes. This reagent “results in cell lysis and generation of a luminescent signal proportional to the amount of ATP present. The amount of ATP is directly proportional to the number of cells present in culture, in agreement with previous reports. The CellTiter-Glo Assay generates a “glow-type” luminescent signal, produced by the luciferase reaction (Promega.com)”.

[3] = tested on: LL29 cells (primary human fibroblasts derived from IPF patients), α-smooth muscle actin; experiment: Inhibition of fibrotic process: TGF-β1-treated primary human fibroblasts, αSMA staining; format: cell-based; conditions: for EC50: TGF-β1 20 ng/mL, 4 days, % cells positive for αSMA; for inhibition at 10 µM: read-out: percent inhibition at 10 μM (given for EC50 >10 μM), TGF-β1, αSMA, 10 μM;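 as to all read-outs here: controls were TGF-β1-stimulated wells with DMSO vehicle as the positive reference and cells given DMSO alone as the negative reference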
[4] = tested on: IL-6 in human peripheral blood mononuclear cells (huPBMCs); experiment: IL-6 inhibition in LPS-stimulated human peripheral blood mononuclear cells (HTRF); format: cell-based; conditions: for EC50: LPS 50 ng/mL, 22 hours, IL-6 HTRF; for inhibition at 10 µM: read-out: percent inhibition at 10 μM (given for EC50 >10 μM), LPS, IL-6, 10 μM
Experimental: Human Peripheral Blood Mononuclear Cells:
Fresh Normal PB MNC (Catalog # PB001, AllCells, Alameda, Calif.) were shipped overnight at 4° C. and resuspended in Roswell Park Memorial Institute (RPMI) 1640 Medium, with GlutaMAX Supplement (Catalog #61870127, ThermoFisher Scientific, Waltham, Mass.) supplemented with 1% Penicillin-Streptomycin (Catalog #15140163, ThermoFisher Scientific, Waltham, Mass.) and 1% fetal bovine serum (FBS) (Catalog #16140089, ThermoFisher Scientific, Waltham, Mass.) assay media.
Fresh normal human peripheral blood mononuclear cells (huPBMCs) were resuspended in 1% FBS-RPMI assay media with 1% Penicillin-Streptomycin 1% to a cell concentration of 1×10e6 cells/mL. […] 50 ng/mL of Lipopolysaccharides from Escherichia coli 0111:B4 (Catalog # L5293-2ML, Sigma-Aldrich, St. Louis, Mo.) was added after 2 hours and cells were incubated for another 22 hours at 37° C.-5% CO2. After 22 hour incubation, a mixture of anti-IL6 XL665 and anti-IL-6 Cryptate diluted in reconstitution buffer (Catalog #62IL6PEC, Cisbio Inc., Bedford, Mass.) was added to each well. Following incubation for 3 hours at room temperature, Homogeneous Time-Resolved Fluorescence (HTRF) was measured using the Envision (Perkin Elmer, Shelton, Conn.) at 665 nm and […]. The ratio of fluorescence at 665 nm to 620 nm was used as a readout for IL-6 quantification. All samples were processed in duplicate. Readings were normalized to DMSO treated cells and normalized activities were utilized for EC50 calculations. EC50 was determined using software generated by Dotmatics Limited (Windhill Bishops Stortford Herts, UK) using the Levenberg-Marquardt 4 parameter fitting procedure with finite different gradients.

[5] = molecular target: recombinant DYRK1A kinase (Homo sapiens (Human), UniProt Q13627); experiment: DYRK1A kinase assay (Ser/Thr 18 peptide Z-lyte, FRET)
[6] = GSK3β kinase, head says EC50, method says IC50, ATP 46 μM
[7] = DYRK1A kinase, head says EC50, method says IC50, ATP 30 μM

Chain of recombinant GSK3β kinase (P49841 whole entry): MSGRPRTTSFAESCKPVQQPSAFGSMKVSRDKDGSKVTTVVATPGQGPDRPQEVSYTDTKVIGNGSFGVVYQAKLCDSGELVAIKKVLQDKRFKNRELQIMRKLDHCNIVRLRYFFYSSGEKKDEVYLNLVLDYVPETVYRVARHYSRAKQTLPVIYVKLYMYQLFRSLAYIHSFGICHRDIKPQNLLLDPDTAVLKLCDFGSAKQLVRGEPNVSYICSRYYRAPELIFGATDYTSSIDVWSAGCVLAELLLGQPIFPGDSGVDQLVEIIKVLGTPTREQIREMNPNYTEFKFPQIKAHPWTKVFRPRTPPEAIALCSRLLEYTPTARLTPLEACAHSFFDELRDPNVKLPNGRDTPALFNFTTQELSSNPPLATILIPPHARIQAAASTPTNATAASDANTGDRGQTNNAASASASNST

SMILES	EC50 ([1]; Homo sapiens)	EC50 (recombinant GSK3β kinase; [6])	EC50 ([2]; Homo sapiens, 96 h)	EC50 ([3]; Homo sapiens, Fibroblast, 96 h)	EC50 ([4]; Homo sapiens, PBMC)	EC50 [5, 7]	inhibition at 10 µM ([1]; Homo sapiens)	EC50 (recombinant GSK3β kinase)	inhibition at 10 µM ([2]; Homo sapiens, read-out: percent inhibition at 10 μM (given for EC50 >10 μM), 10 μM)	EC50 [5]	inhibition at 10 µM ([4]; Homo sapiens, PBMC)	inhibition at 10 µM ([3]; Homo sapiens, Fibroblast)	EC50 [1]	EC50 [2]	EC50 [3]	EC50 [4]
CN1CCN(c2cc(C(=O)Nc3cc4cc(-c5cc(N)cc(F)c5)ccc4cn3)ccn2)CC1 [Compound 1, N-(6-(3-Amino-5-fluorophenyl)isoquinolin-3-yl)-2-(4-methylpiperazin-1-yl) isonicotinamide]	4.01 µM	> 10 µM	5.86 µM	2.3 µM	7.16 µM	0.075 µM	–	–	–	–	–	–	–	–	–	–
CC(C)Nc1cc(F)cc(-c2ccc3cnc(NC(=O)c4ccnc(N5CCN(C)CC5)c4)cc3c2)c1 [Compound 2, N-(6-(3-Fluoro-5-(isopropylamino)phenyl)isoquinolin-3-yl)-2-(4-methylpiperazin-1-yl)isonicotinamide]	2.05 µM	> 10 µM	1.38 µM	0.884 µM	1.33 µM	0.354 µM	–	–	–	–	–	–	–	–	–	–
CN1CCN(c2cc(C(=O)Nc3cc4cc(-c5ccccn5)ccc4cn3)ccn2)CC1 [Compound 4, 2-(4-Methylpiperazin-1-yl)-N-(6-(pyridin-2-yl)isoquinolin-3-yl) isonicotinamide]	> 10 µM	–	> 10 µM	3.75 µM	6.75 µM	–	3.3%	> 10 µM	21.3%	0.242 µM	–	–	–	–	–	–
CN1CCN(c2cc(C(=O)Nc3cc4cc(-c5ccncc5)ccc4cn3)ccn2)CC1 [Compound 5, 2-(4-Methylpiperazin-1-yl)-N-(6-(pyridin-4-yl)isoquinolin-3-yl) isonicotinamide]	> 10 µM	–	9.46 µM	2.45 µM	> 10 µM	–	38.5%	> 10 µM	–	0.018 µM	4.1%	–	–	–	–	–
CN1CCN(c2cc(C(=O)Nc3cc4cc(-c5cccnc5)ccc4cn3)ccn2)CC1 [Compound 13, 2-(4-Methylpiperazin-1-yl)-N-(6-(pyridin-3-yl)isoquinolin-3-yl) isonicotinamide]	0.159 µM	–	0.324 µM	0.805 µM	2.82 µM	–	–	> 10 µM	–	0.003 µM	–	–	–	–	–	–
CN1CCN(c2cc(C(=O)Nc3cc4cc(-c5cncc(F)c5)ccc4cn3)ccn2)CC1 [Compound 24, N-(6-(5-Fluoropyridin-3-yl)isoquinolin-3-yl)-2-(4-methylpiperazin-1-yl) isonicotinamide]	> 10 µM	> 10 µM	9.53 µM	2.77 µM	> 10 µM	0.011 µM	20.2%	–	–	–	2.8%	–	–	–	–	–
CN1CCN(c2cc(C(=O)Nc3cc4cc(-c5cncc(Cl)c5)ccc4cn3)ccn2)CC1 [Compound 25, N-(6-(5-Chloropyridin-3-yl)isoquinolin-3-yl)-2-(4-methylpiperazin-1-yl) isonicotinamide]	> 10 µM	> 10 µM	8.87 µM	> 10 µM	> 10 µM	> 10 µM	8.9%	–	–	–	4.6%	44.8%	–	–	–	–
CN1CCN(CC(=O)Nc2cc3cc(-c4ccc(C(F)(F)F)nc4)ccc3cn2)CC1 [Compound 30, 2-(4-Methylpiperazin-1-yl)-N-(6-(6-(trifluoromethyl)pyridin-3-yl)isoquinolin-3-yl)acetamide]	9.69 µM	> 10 µM	8.7 µM	> 10 µM	> 10 µM	> 10 µM	–	–	–	–	5.2%	24.9%	–	–	–	–
COc1cncc(-c2ccc3cnc(NC(=O)c4ccnc(N5CCN(C)CC5)c4)cc3c2)c1 [Compound 34, N-(6-(5-Methoxypyridin-3-yl)isoquinolin-3-yl)-2-(4-methylpiperazin-1-yl) isonicotinamide]	1.04 µM	> 10 µM	1.19 µM	0.507 µM	2.15 µM	0.004 µM	–	–	–	–	–	–	–	–	–	–
O=C(Nc1cc2cc(-c3cncc(OC4CCNCC4)c3)ccc2cn1)c1ccc(F)cc1 [Compound 35, 4-Fluoro-N-(6-(5-(piperidin-4-yloxy)pyridin-3-yl)isoquinolin-3-yl) benzamide]	1.38 µM	> 10 µM	1.16 µM	2.8 µM	1.01 µM	0.01 µM	–	–	–	–	–	–	–	–	–	–
Nc1cncc(-c2ccc3cnc(NC(=O)c4ccc(F)cc4)cc3c2)c1 [Compound 36, N-(6-(5-Aminopyridin-3-yl)isoquinolin-3-yl)-4-fluorobenzamide]	0.379 µM	8.86 µM	0.493 µM	0.292 µM	1.22 µM	0.002 µM	–	–	–	–	–	–	–	–	–	–
Nc1cncc(-c2ccc3cnc(NC(=O)c4ccc(OC5CCNCC5)cc4)cc3c2)c1 [Compound 37, N-(6-(5-Aminopyridin-3-yl)isoquinolin-3-yl)-4-(piperidin-4-yloxy) benzamide]	0.109 µM	4.62 µM	0.081 µM	> 10 µM	0.662 µM	0.001 µM	–	–	–	–	–	39.5%	–	–	–	–
CN1CCN(c2cc(C(=O)Nc3cc4cc(-c5cncc(N)c5)ccc4cn3)ccn2)CC1 [Compound 38, N-(6-(5-Aminopyridin-3-yl)isoquinolin-3-yl)-2-(4-methylpiperazin-1-yl) isonicotinamide]	0.075 µM	–	0.225 µM	0.603 µM	0.765 µM	–	–	> 10 µM	–	0.002 µM	–	–	–	–	–	–
CC(C)Nc1cncc(-c2ccc3cnc(NC(=O)C4CCN(CCF)CC4)cc3c2)n1 [Compound 89, 1-(2-Fluoroethyl)-N-(6-(6-(isopropylamino)pyrazin-2-yl)isoquinolin-3-yl) piperidine-4-carboxamide]	–	0.014 µM	–	–	–	–	–	–	–	–	–	–	0.178 µM	0.447 µM	3.91 µM	0.39 µM
CC(C)CCN1CCC(C(=O)Nc2cc3cc(-c4cncc(NC(C)C)n4)ccc3cn2)CC1 [Compound 91, 1-Isopentyl-N-(6-(6-(isopropylamino)pyrazin-2-yl)isoquinolin-3-yl) piperidine-4-carboxamide]	–	–	–	–	–	–	–	–	–	–	–	–	0.718 µM	6.89 µM	0.019 µM	0.446 µM
